# In US12522596B2, “Compounds as GLP-1R agonists” (Terns Pharmaceuticals, Inc., priority 2021, dated 2026):
# Key:
# [1] = molecular target: T1, human GLP-1R receptor (Homo sapiens, UniProt P43220); experiment: GLP-1R low expression cell assay (cAMP TR-FRET, CHO-K1_hGLP-1Rlow_clone10); assay type: cell-based; settings: CHO-K1_hGLP-1Rlow_clone10 cells
# T1 construct: expressed in transfected cells
# Description: Stable cell lines expressing high and low GLP-1R surface expression were generated in CHO-K1 cells transfected (Fugene 6) with a puromycin selectable DNA plasmid encoding human GLP-1R receptor (accession number: NM_002062.5) under control of an EF1A promoter. Transfected cells were seeded into 24-well plates (9,000 cells/well) containing complete medium and incubated in a humidified incubator at 37° C. with 5% carbon dioxide. After overnight incubation, medium was replaced with complete medium supplemented with puromycin (6 μg/mL) and refreshed every 2-3 days to select for stably transfected cells. Individual pools of selected cells were expanded prior to analysis for responsiveness to GLP-1 control peptide using a TR-FRET assay to detect cAMP (LANCE Ultra CAMP Assay, Perkin Elmer). Briefly, cells were collected in Versene solution, plated in 384-well plates (1,000 cells/well) and combined with serially diluted GLP-1R control peptide (10 nL) using an acoustic dispenser (ECHO). Plates were incubated for 30 minutes at 25° C. prior to the addition of EU-CAMP tracer (5 μL) and Ulight-anti-cAMP (5 μL) reagents to each well, followed by 15 minutes incubation at 25° C. TR-FRET signal was detected using an En Vision Multimode Plate Reader (excitation=320 nm; emission=615 and 655 nm). Dose-response curves were used to generate EC50 values as a measure of responsiveness to the GLP-1R control peptide. Selected cell lines were monitored for responsiveness over multiple passages to ensure stability. […] Briefly, GLP-1R expression was analyzed by flow cytometry using a fluorescein-labeled Exendin-4 peptide fluorescent probe (FLEX). Cells were harvested in Versene solution and washed 3-times with PBS+0.5% BSA before incubation with FLEX reagent (10 μM) for 2 hours at room temperature. After incubation, cells were washed 3-times in PBS+0.5% BSA before final resuspension in PBS prior to analysis by flow cytometry to measure FLEX mean fluorescence intensity (MFI) as a measure of GLP-1R expression on the cell surface.
# For compound testing in the CHO-K1_hGLP-1Rlow_clone10 cell line, cells were seeded in 384-well plates (1,000 cells/well). Test compounds were serially diluted in DMSO (10-point, 3-fold dilution), added to wells using an ECHO dispenser (10 nL/well) and plates were centrifuged for 1 min and agitated for 2 min at room temperature prior to 30-minute incubation at 25° C. After incubation, Eu-CAMP (5 μL) and Ulight-anti-cAMP (5 μL) reagents were added to each well, followed by centrifugation for 1 minute, agitation for 2 minutes at room temperature, and final incubation of the plates at 25° C. for 15 minutes. Plates were read using an EnVision microplate reader (excitation=320 nm; emission=615 and 655 nm). Dose-response curves were generated from duplicate wells based on percent activation calculated relative to a control GLP-1 peptide agonist that was run in parallel. EC50 values were determined by fitting percent activation as a function of compound concentration using the Hill equation (XLfit).
# Stable cell lines expressing high and low GLP-1R surface expression were generated in CHO-K1 cells transfected (Fugene 6) with a puromycin selectable DNA plasmid encoding human GLP-1R receptor (accession number: NM_002062.5) under control of an EF1A promoter. Transfected cells were seeded into 24-well plates (9,000 cells/well) containing complete medium and incubated in a humidified incubator at 37° C. with 5% carbon dioxide. After overnight incubation, medium was replaced with complete medium supplemented with puromycin (6 μg/mL) and refreshed every 2-3 days to select for stably transfected cells. Individual pools of selected cells were expanded prior to analysis for responsiveness to GLP-1 control peptide using a TR-FRET assay to detect cAMP (LANCE Ultra CAMP Assay, Perkin Elmer).
# [2] = system: rat hepatocytes; experiment: Metabolic stability in rat hepatocytes; assay type: in vitro ADME
# Outline: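 Compounds at 1 μM (0.1% DMSO) were incubated with 1×10^6 cells/mL cryopreserved rat or human hepatocytes in DMEM at 37°C for 0–240 min. Parent remaining was measured by LC-MS/MS; k from semi-log decline gave t1/2 and CLint, with CLhep predicted by the well-stirred model.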
# T1 sequence (P43220 24-463): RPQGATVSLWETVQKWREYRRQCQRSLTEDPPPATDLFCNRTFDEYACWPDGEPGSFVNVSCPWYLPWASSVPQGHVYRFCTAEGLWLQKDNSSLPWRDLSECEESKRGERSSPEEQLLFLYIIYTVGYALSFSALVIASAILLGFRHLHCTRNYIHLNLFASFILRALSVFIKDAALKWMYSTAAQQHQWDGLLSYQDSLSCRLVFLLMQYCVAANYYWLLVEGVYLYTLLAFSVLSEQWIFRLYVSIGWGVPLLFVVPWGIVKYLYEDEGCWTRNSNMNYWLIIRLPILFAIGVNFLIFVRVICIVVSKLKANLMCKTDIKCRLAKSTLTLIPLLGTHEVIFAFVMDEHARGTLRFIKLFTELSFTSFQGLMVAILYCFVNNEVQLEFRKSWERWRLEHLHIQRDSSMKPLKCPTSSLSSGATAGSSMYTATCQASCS
SMILES,EC50 [1],CLint relative to reference standard [2],Half-life relative to reference [2]
N#Cc1ccc(COc2cccc(C3CCN(Cc4nc5ccc(C(=O)O)cc5n4Cc4cncs4)CC3)n2)c(F)c1 [Compound 2],3.1 nM,not significantly different,–
Cc1ncsc1Cn1c(CN2CCC(c3cccc(OCc4ccc(C#N)cc4F)n3)CC2)nc2ccc(C(=O)O)cc21 [Compound 4],2.5 nM,significantly lower,significantly higher
N#Cc1ccc(COc2ccnc(C3CCN(Cc4nc5ccc(C(=O)O)cc5n4Cc4cncs4)CC3)n2)c(F)c1 [Compound 20],9.4 nM,significantly lower,significantly higher
N#Cc1ccc(COc2cccc(N3CCN(Cc4nc5ccc(C(=O)O)cc5n4Cc4cncs4)CC3)n2)c(F)c1 [Compound 30],1.7 nM,significantly lower,significantly higher
CC1(c2ccc(C#N)cc2F)Oc2cccc(C3CCN(Cc4nc5ccc(C(=O)O)cc5n4Cc4cncs4)CC3)c2O1 (centres unmarked) [Compound 31],0.6 nM,significantly lower,significantly higher
